Assay results as given in patent publication US20030206892A1, “Methods of modulating activity of DXR” (priority 2000, published 2003).
Converted amounts (≈) assume the structure as drawn.

Legend:
Type in all cases: cell-based
[1] = test system: E. coli DH5α; assay: E. coli DXR MIC experiment, parent strain; conditions: Escherichia coli, LB, overnight at 37° C., read-out: E. coli DXR MICs, E. coli DH5α
Method: (§1) The MIC protocol used techniques well known to those skilled in the art. All strains were grown overnight in LB with appropriate selection. The compounds are mixed or put in contact with DMSO. Fifty μl of LB was placed in each well of the microtiter plate, except in Column 1. To obtain a top concentration of 256 μl/mil of compound after the inoculum is added: 10 μl of a 5.12 mg/ml stock is mixed with 90 μl of LB. This mixture was placed in the first well of its assigned row of a 96-well plate. The compound was then serially diluted 1:2 by taking 50 μl from the first well in the row and mixing it with the second well of the same row, Column 2. Then, 50 μl from that well was mixed with the third well in the row, Column 3 and so on until Column 11. Fifty μl of the serial dilution from Column 11 was discarded. The final well in the row, column 12, was the growth control. No compound was placed in column 12. The overnight culture was diluted 1:50 into LB. Fifty μl of this culture dilution was added to every well of the microtiter plate. This dilutes the inoculum and drug 1:2. The final inoculum was approximately 1×10^5 cells/ml. The 96-well pates are then incubated overnight at 37° C.

[2] = test system: E. coli DH5α + (pET28); assay: E. coli DXR MIC experiment, empty vector strain; conditions: Escherichia coli, LB, overnight at 37° C., read-out: E. coli DXR MICs, E. coli DH5α + (pET28)
Method: as §1

[3] = test system: E. coli DH5α + (pET28::dxr), E. coli dxr; assay: E. coli DXR MIC experiment, strain overexpressing E. coli DXR
Method: as §1

[4] = test system: E. coli DH5α + (pET28::dxr), H. influenzae dxr; assay: H. influenzae DXR MIC experiment, strain expressing H. influenzae DXR
Method: as §1, with “Fifty μl of LB was placed in each well of the microtiter plate, except in Column 1. To obtain a top concentration of 256 μl/mil of compound after the inoculum is added: 10 μl of a 5.12 mg/ml stock is mixed with 90 μl of LB.” left out, “The overnight culture was diluted 1:50 into LB.” left out

CC1(C)S[C@@H]2[C@H](NC(=O)[C@H](N)c3ccc(O)cc3)C(=O)N2[C@H]1C(=O)O [Amoxicillin]
MIC [1]: 16 µg/mL (≈ 43.8 µM)

O=CN(O)CCCP(=O)(O)O [Fosmidomycin]
MIC [1]: 16 µg/mL (≈ 87.4 µM) | MIC [2]: 16 µg/mL | MIC increase for cells overexpressing E. coli DXR ([3]; E. coli cells (DH5α) overexpressing E. coli DXR): 8 fold | MIC ([3]; Escherichia coli, read-out: E. coli DXR MICs, E. coli DH5α + (pET28::dxr)): 128 µg/mL | MIC increase for cells expressing H. influenzae DXR ([4]; E. coli cells (DH5α) expressing H. influenzae DXR): 16 fold | MIC ([4]; Escherichia coli, read-out: H. influenzae DXR MICs, E. coli DH5α + (pET28::dxr)): 256 µg/mL
